Data set [1] in a line: Drug level in rat plasma at 5 mg after 6 hrs. It counts as ADME, cell-free.
Data set [2] relates to Mus musculus. The data set can be described thus: Antiinflammatory activity against carrageenan-induced paw edema in ICR mouse at 300 mg/kg, po administered 6 hr before carrageenan challenge measured after 3 to 24 hrs by plethysmometer. Type of data set: functional, organism-based. Details: dose 300 mg/kg. (In general: The carrageenan paw model is a standard test of acute inflammation.)

Data set [3] concerns Mus musculus. Put plainly: Antiinflammatory activity against carrageenan-induced paw edema in ICR mouse at 300 mg/kg, po administered 1 hr before carrageenan challenge measured after 6 hrs by plethysmometer relative to control. Type of data set: functional.
Data set [4] relates to Mus musculus. The data set can be described thus: Antiinflammatory activity against carrageenan-induced paw edema in ICR mouse at 300 mg/kg, po administered 1 hr before carrageenan challenge measured after 3 hrs by plethysmometer relative to control. It counts as functional.
The test system of data set [5] is Mus musculus. The data set can be described thus: Antioxidant activity against AAPH-induced lipid peroxidation in ICR mouse assessed as increase in ORAC score in plasma at 300 mg/kg, po after 1 hr relative to control. It counts as functional.
The test system of data set [6] is Mus musculus. Put plainly: Antiinflammatory activity against carrageenan-induced paw edema in ICR mouse at 300 mg/kg, po administered 1 hr before carrageenan challenge measured after 24 hrs by plethysmometer relative to control. It counts as functional.
In data set [7] the test system is Plasma. The data set can be described thus: Drug level in ICR mouse plasma assessed as free compound level after 1 hr in presence of beta-glucuronidase by HPLC-ESI-MS/MS analysis relative to total compound level. Type of data set: ADME, cell-free.
The subject of data set [8] is Plasma. The data set can be described thus: Drug level in ICR mouse plasma assessed as free compound level after 1 hr in presence of beta-glucuronidase by HPLC-ESI-MS/MS analysis. It counts as ADME, cell-free.
Data set [9] has as its system Plasma. The data set can be described thus: Drug level in ICR mouse plasma assessed as free compound level after 6 hrs in presence of beta-glucuronidase by HPLC-ESI-MS/MS analysis. It counts as ADME, cell-free.
A short description of data set [10]: Drug level in human plasma after 0.5 hrs. It counts as ADME, cell-free.
The nature of data set [11]: Drug level in human plasma after 6 hrs. It counts as ADME, cell-free.
Data set [12] relates to Plasma. The data set can be described thus: Drug level in ICR mouse plasma assessed as free compound level after 6 hrs in presence of beta-glucuronidase by HPLC-ESI-MS/MS analysis relative to total compound level. It counts as ADME, cell-free.
The test system of data set [13] is Mus musculus. The data set can be described thus: Antioxidant activity against AAPH-induced lipid peroxidation in ICR mouse assessed as decrease in ORAC score in plasma at 300 mg/kg, po after 6 hr relative to control. It counts as functional. Details: scale not given: the % may be the effect or the level left.

This is an account of results in ChEMBL document CHEMBL1833831, “In vivo anti-inflammatory and antioxidant properties of ellagitannin metabolite urolithin A” (Bioorg Med Chem Lett, 2011).

Structures are written as SMILES. Activity calls are given as the source filed them. The calls are words filed in the database; no cut-off is given here.

Compound `O=C1O[C@H]2[C@@H]3OC(=O)c4cc(O)c(O)c(O)c4-c4c(cc(O)c(O)c4O)C(=O)OC[C@H]2O[C@@H](OC(=O)c2cc(O)c(O)c(O)c2)[C@@H]3OC(=O)c2cc(O)c(O)c3c2[C@@H]2C1=CC(=O)[C@](O)(O3)C2(O)O` [GERANIIN] gave a concentration at 6 h in [1] of 450 nM.

As to `O=c1oc2cc(O)ccc2c2ccc(O)cc12`, the outcome in [2] was inactive. Also, the Activity in data set [3] was 26%; in data set [4], 35%; in data set [5], 142%; in [6], 34%; in [13] it was 118%. The “Cp(f)” value in data set [7] was determined as 77.2%; in data set [8], 2850 nM; in data set [9] it was 830 nM; in data set [12], 65.7%. For the same compound, the concentration at 0.5 h in data set [10] worked out at 40 nM. The concentration at 6 h in data set [11] was determined as 110 nM.
